Experimental data: article PMC2796434 (Bioorganic & medicinal chemistry, 2008)

Target: T1, GV sPLA2 (Homo sapiens, UniProt P39877)
T1 sequence (P39877 21-138): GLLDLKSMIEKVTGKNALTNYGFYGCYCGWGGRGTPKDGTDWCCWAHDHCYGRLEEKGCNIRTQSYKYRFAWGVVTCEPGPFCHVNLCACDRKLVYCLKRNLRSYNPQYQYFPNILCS
Test: mixed-micelle radiolabelled phospholipid
Format: biochemical

CCCC[C@H](CCC(=O)O)NC(=O)CCCCCCc1ccccc1 [compound 42, (R)-4-(7-Phenylheptanamido)octanoic acid]
GV sPLA2: 0.003 ± 0.0004 mole fraction (XI(50))
